Columns and labels:
[1] = system: HLA class II molecules; conditions: cited from earlier work
[2] = system: 26 cytokines in serum; test: Luminex multiplex inflammatory cytokine analysis of patient serum (TeloVac trial); format: in vivo, human
Method: (§1) The TeloVac trial, was initiated in January 2007 comparing combination therapy with Gemcitabine and Capecitabine (GemCap) therapy with concurrent and sequential chemo-immunotherapy using GV1001 in locally advanced and metastatic pancreatic cancer.
(§2) After this, GV1001 was administered once monthly. GM-CSF was administered separately as an intradermal injection 10-15 minutes before all GV1001 injections at the approximately same site.
Cytokine Results: The Kruskal-Wallis comparison of Arm 2 and Arm 3 baseline (i.e. before treatment) with arm 2 week 7 (GemCap) with Arm 3 week 10 (GemCap and GV1001) serum samples are shown in table 1 below.
Paired analysis was carried out for: • Arm 2 patients at baseline and following 7 weeks of GemCap treatment. • Arm 3 patients at baseline and following 10 weeks of GemCap and GV1001 treatment.

[3] = system: locally advanced and metastatic pancreatic cancer; test: Survival analysis, TeloVac Phase III trial; format: in vivo, human; conditions: 1062 patients, 52 centres
Method: The TeloVac trial recruited 1062 patients in 52 centres throughout the UK. […] Importantly, biomarkers for an increased survival in response to the vaccine were identified in a subgroup of patients.
as §1, §2

[4] = system: advanced pancreatic and pulmonary cancer patients; conditions: cited from earlier work

## EARPALLTSRLRFIPK (listed as Homo sapiens) [GV1001, 16-mer peptide, fragment of the human telomerase enzyme]
[1]
  HLA binding: binds multiple HLA class II molecules
[2]; TeloVac translational research
  anti-inflammatory response: significant anti-inflammatory response
[2]; human, in vivo
  regulation of serum levels of eotaxin or MIP1α: did not appear that treatment with GV1001 could regulate
[2]; serum, paired analysis
  change of serum cytokine levels, pre-treatment compared to post treatment: this decrease was not evident
[3]
  overall survival versus control group receiving chemotherapy: no significant difference in overall survival
[4]
  GV1001-specific T-cell responses, subjects: > 50%
  toxicity: without clinically important toxicity
